Key:
AML12 mouse hepatocytes = test: Western blot of insulin signaling and cullin neddylation in AML12 cells; format: cell-based
Procedure: MLN4924 increases IRS protein and AKT activation in the presence of insulin. Mouse AML 12 hepatocytes were serum starved for 16 h. Cells were then pre-treated with MLN4924 for 1 h followed by 100 nM insulin stimulation for 4 h. Western blot was then performed to evaluate insulin signaling activation.
AML 12 cells were serum starved for 16 h. Cells were then pre-treated with 500 nM MLN4924 or vehicle (DMSO) for 1 h, followed by 100 µg/ml cycloheximide (CHX) and 100 nM insulin treatment.
AML12 cells were serum starved for 16 h. Cells were then pre-treated with 500 nM MLN4924 for 1 h followed by 100 nM insulin stimulation in time course.
FIG. 18A is a Western blot analysis showing that MLN4924 enhances hepatocyte insulin responsiveness (signaling) by delaying feedback IRS degradation. AML12 cells were serum starved for 16 h. Cells were then pre-treated with MLN4924 for 1 h followed by insulin stimulation for 4 h.
FIG. 18D is a Western blot analysis of insulin signaling in AML12 cells serum starved for 16 h, then pre-treated with 500 nM MLN4924 for 1 h followed by 100 nM insulin stimulation in time course.
FIG. 18E is a Western blot analysis of AML12 cells serum starved for 16 h then pre-treated with 500 nM MLN4924 or vehicle (DMSO) for 1 h, followed by 100 µg/ml cycloheximide (CHX) and 100 nM insulin treatment. Cells were collected at the indicated time for Western blotting.
FIG. 18F is a Western blot analysis of insulin signaling in AML12 cells serum starved for 16 h then pre-treated with 100 nM rapamycin and 500 nM MLN4924 as indicated for 1 h followed by additional 2 h incubation in the presence or absence of 100 nM insulin. Blots are representative of 2-4 independent experiments.
FIG. 20 is a Western blot analysis showing that MLN4924 enhances hepatocyte insulin responsiveness in cells treated with wortmannin by delaying feedback IRS degradation (related to FIG. 18A). AML12 cells were serum starved for 16 h then pre-treated with 1 µM wortmannin (Wort) and 500 nM MLN4924 as indicated for 1 h followed by additional 2 h incubation in the presence or absence of 100 nM insulin. Blots are representative of 2 independent experiments.
FIG. 21 is a Western blot analysis showing that MLN4924 enhances hepatocyte insulin responsiveness in cells treated with Torin 1 by delaying feedback IRS degradation (related to FIG. 18A). AML12 cells were serum starved for 16 h then pre-treated with 250 nM Torin1 and 500 nM MLN4924 as indicated for 1 h followed by additional 2 h incubation in the presence or absence of 100 nM insulin. Blots are representative of 2 independent experiments.
(§1) MLN4924 and TAS4464 were purchased from MedChemExpress (MCE, Monmouth Junction, NJ). For cell treatment, MLN4924 and TAS4464 were dissolved in DMSO. Cells were serum starved overnight and then treated with MLN4924, TAS4464 and/or insulin as indicated. For injection in mice, MLN4924 and TAS4464 were first dissolved in DMSO, which was further suspended in 10% (2-hydroxypropyl)-β-cyclodextrin (Sigma, St. Louis, MO). The final solution contains 1% DMSO. The subcutaneous injection volume is 200 µl/mouse.
Protein lysates were prepared in RIPA buffer containing 1% SDS and protease inhibitors on ice for 1 h followed by brief sonication. After centrifugation, supernatant was used for SDS-PAGE and immunoblotting.
AML12 cells were a generous gift from Dr. Yanqiao Zhang (Northeast Ohio Medical University). AML12 cells were cultured in DMEM medium supplemented with a mixture of insulin-transferrin-selenium (#41400-045, ThermoFisher, Waltham, MA). For experiments, cells were cultured in serum free medium overnight before various treatments were initiated. The siGENOME SMARTpool siRNA and siControl were purchased from Dharmacon, Inc. (Lafayette, CO). The siRNA was transfected with Lipofectamine RNAiMAX reagent in a final concentration of 25 nM recommended by the manufacturer. […]

male C57BL6/J mice = test: Plasma/serum insulin and c-peptide after acute neddylation inhibitor treatment; format: in vivo; details: 6 h fast
Procedure: Male C57BL6/J mice on chow diet were treated with 45 mg/kg TAS4464 via subcutaneous injection at 9 am. Mice were then fasted for 6 hours and serum insulin was measured. Blood samples were collected at 0 min and 120 min and used for insulin measurement (n=4). Left-hand bars are controls. Right-hand bars are TAS4464 treatments.
Male C57BL6/J mice on Western diet were treated with 15 mg/kg TAS4464 via subcutaneous injection at 9 am. Mice were then fasted for 6 hours and serum c-peptide were measured (n=5).
Male C57BL6/J mice on chow diet were treated with 60 mg/kg MLN4924 via subcutaneous injection at 9 am. Mice were then fasted for 6 hours and serum c-peptide were measured (n=8)
Aspartate aminotransferase (AST) and alanine aminotransferase (ALT) assay kits were purchased from Pointe Scientific (Canton, MI). Free fatty acid assay kit was purchased from Biovision Inc. (Milpitas, CA). Insulin ELISA kit was purchased from Crystal Chem Inc. (Elk Grove Village, IL).
A hyperinsulinemic-euglycemic clamp study was conducted in which obese mice were treated with vehicle or MLN4924.

[1] = test system: insulin resistant and obese male C57BL/6J mice; test: Acute TAS4464 treatment of obese, insulin resistant WD-fed mice; format: in vivo; details: WD 8 weeks
Procedure: Mice were fed WD for 8 weeks to render them insulin resistant and obese. Mice were then treated with 45 mg/kg TAS4464 or vehicle once at 5 pm on day 1 and once at 9 am on day 2. Body weight and blood glucose were measured at 3 pm on day 2.
Mice were fed WD for 8 weeks, after which the mice were injected with vehicle or 45 mg/kg TAS4464 subcutaneously at 5 pm on day 1 and 9 am on day 2. Mice were fasted from 9 am to 3 pm on day 2 and blood glucose was measured. Results are expressed as mean ± SEM. […]. “*”, p < 0.05, vs. Vehicle.
as §1
Treatment of obese mice with TASS4464 reduced the blood glucose to ~100 mg/dl.

[2] = 1 µM wortmannin or 250 nM Torin1, 100 nM insulin

| SMILES | downstream AKT activation (AML12 mouse hepatocytes; [2]) | downstream mTOR activation (AML12 mouse hepatocytes; [2]) | serum c-peptide concentration (male C57BL6/J mice; Western diet, 15 mg/kg SQ at 9 am) | serum insulin concentration (male C57BL6/J mice; chow diet, 45 mg/kg SQ at 9 am) | blood glucose after 6-hour fast ([1]; 45 mg/kg SQ at 5 pm day 1 and 9 am day 2) | blood glucose (in words) ([1]; 45 mg/kg SQ twice, 6 h fast) | IRS protein (AML12 mouse hepatocytes; TAS4464 increasing doses, 5 h) | neddylated cullin 1 (AML12 mouse hepatocytes; TAS4464 increasing doses, 5 h) | total neddylated cullins (AML12 mouse hepatocytes; TAS4464 increasing doses, 5 h) |
| --- | --- | --- | --- | --- | --- | --- | --- | --- | --- |
| CCC(=O)N1CCN(c2ccc(-n3c(=O)ccc4cnc5ccc(-c6cnc7ccccc7c6)cc5c43)cc2C(F)(F)F)CC1 [Torin 1] | decreased downstream AKT activation | blocked downstream mTOR activation |  |  |  |  |  |  |  |
| CCOc1cccc(F)c1C#Cc1cn([C@@H]2O[C@H](CNS(N)(=O)=O)[C@@H](O)[C@H]2O)c2ncnc(N)c12 [TAS4464, 7H-Pyrrolo[2,3-d]pyrimidin-4-amine, 7-[5-[(aminosulfonyl)amino]-5-deoxy-beta-D-ribofuranosyl]-5-[2-(2-ethoxy-6-fluorophenyl)ethynyl]-] |  |  | elevated serum c-peptide concentration | increases serum insulin concentration | ~ 100 mg/dl | acutely reduced blood glucose | increased IRS protein | significantly inhibited | significantly inhibited |

From patent publication US20230218654A1, “COMPOSITIONS AND METHODS FOR TREATING HYPERGLYCEMIA IN TYPE-2 DIABETES” (The Board of Regents of the university of Oklahoma, priority 2020, published 2023)
